Target: T1R2/T1R3 (Homo sapiens) (UniProt Q8TE23+Q7RTX0)
Experiment: Positive allosteric modulation of human TIR2/TIR3 expressed in PEAKrapid cells assessed as potentiation of sucrose-induced intracellular calcium influx by measuring sucrose EC50 at 30 uM measured for 120 secs by fluorescence based assay relative to FEMA4774
Format: functional, cell-based

Efficacy [%]	Compound
54	CC(C)(CC(=O)Nc1cncc(C(=O)O)c1N)NC(=O)C1(c2ccccc2)CC1
58	CC(C)(CC(=O)Nc1cncc(C(=O)O)c1N)NC(=O)C(C)(C)C
61	CC(C)[C@H](N)C(=O)NC(C)(C)CC(=O)Nc1cncc(C(=O)O)c1N
64	CC(C)(C)CC(=O)NC(C)(C)CC(=O)Nc1cncc(C(=O)O)c1N
65	CCCCCC(=O)NC(C)(C)CC(=O)Nc1cncc(C(=O)O)c1N
59	CCCCCCC(=O)NC(C)(C)CC(=O)Nc1cncc(C(=O)O)c1N
54	CC(C)(CC(=O)Nc1cncc(C(=O)O)c1N)NC(=O)CC[C@@H](N)Cc1ccccc1
61	CC(C)(CC(=O)Nc1cncc(C(=O)O)c1N)NC(=O)[C@@H](N)c1ccccc1
73	CC(C)(CC(=O)Nc1cncc(C(=O)O)c1N)NC(=O)c1cccc2c1CCCC2
73	CC(C)C[C@H](N)C(=O)NC(C)(C)CC(=O)Nc1cncc(C(=O)O)c1N
54	CC(C)C(=O)NC(C)(C)CC(=O)Nc1cncc(C(=O)O)c1N
56	CC(C)(CC(=O)Nc1cncc(C(=O)O)c1N)NC(=O)c1ccc(N)cc1
60	CC(C)CC(=O)NC(C)(C)CC(=O)Nc1cncc(C(=O)O)c1N
55	CC(C)(CC(=O)Nc1cncc(C(=O)O)c1N)NC(=O)C1CCNC1 (centres undefined)
56	CC(C)(CC(=O)Nc1cncc(C(=O)O)c1N)NC(=O)c1cccc(N)c1
59	CC(C)(CC(=O)Nc1cncc(C(=O)O)c1N)NC(=O)C1(N)CCCCC1
58	CC(C)(CC(=O)Nc1cncc(C(=O)O)c1N)NC(=O)[C@H]1CC[C@@H](N)CC1
50	CC(C)(CC(=O)Nc1cncc(C(=O)O)c1N)NC(=O)c1ccccc1
55	CC(C)(CC(=O)Nc1cncc(C(=O)O)c1N)NC(=O)[C@H]1CC[C@H](N)CC1

The next lines start with the compound.

Compound	Efficacy [%]
CC(C)(CC(=O)Nc1cncc(C(=O)O)c1N)NC(=O)CC1(CN)CCCCC1	80
CC(C)(CC(=O)Nc1cncc(C(=O)O)c1N)NC(=O)[C@@H](N)C1CCCCC1	96
CC(C)(CC(=O)Nc1cncc(C(=O)O)c1N)NC(=O)[C@H](N)C1CCCCC1	59
CC(C)(CC(=O)Nc1cncc(C(=O)O)c1N)NC(=O)CC1CCCC1	79
CC(C)(CC(=O)Nc1cncc(C(=O)O)c1N)NC(=O)[C@@H]1CCC[C@H](N)C1	57
CC[C@H](C)[C@H](NC(=O)[C@@H](N)C1CCCCC1)C(=O)NC(C)(C)CC(=O)Nc1cncc(C(=O)O)c1N	76
CC(C)C[C@H](NC(=O)[C@@H](NC(=O)OC(C)(C)C)C1CCCCC1)C(=O)NC(C)(C)CC(=O)Nc1cncc(C(=O)O)c1N	85
CC(C)(CC(=O)Nc1cncc(C(=O)O)c1N)NC(=O)[C@@H](NC(=O)[C@@H](N)C1CCCCC1)C1CCCCC1	92
CCCCCCCCCCCC(=O)NC(C)(C)CC(=O)Nc1cncc(C(=O)O)c1N	50
CC(C)(CC(=O)Nc1cncc(C(=O)O)c1N)NC(=O)C1CCCCC1	71
CC(C)(CC(=O)Nc1cncc(C(=O)O)c1N)NC(=O)CC1CCCCC1	85
CC(C)(CC(=O)Nc1cncc(C(=O)O)c1N)NC(=O)C1CCNCC1	56
CC(C)(CC(=O)Nc1cncc(C(=O)O)c1N)NC(=O)C[C@H]1CCNC1	52
CC(C)(CC(=O)Nc1cncc(C(=O)O)c1N)NC(=O)[C@@H](N)CC1CCCCC1	57
CC(C)C[C@H](NC(=O)[C@@H](N)C1CCCCC1)C(=O)NC(C)(C)CC(=O)Nc1cncc(C(=O)O)c1N	77
CCCCCCCC(=O)NC(C)(C)CC(=O)Nc1cncc(C(=O)O)c1N	57
CCCCCCCC/C=C\CCCCCCCC(=O)NC(C)(C)CC(=O)Nc1cncc(C(=O)O)c1N	55
CC[C@H](C)[C@H](NC(=O)[C@@H](NC(=O)OC(C)(C)C)C1CCCCC1)C(=O)NC(C)(C)CC(=O)Nc1cncc(C(=O)O)c1N	84
CC(C)(CC(=O)Nc1cncc(C(=O)O)c1N)NC(=O)C[C@@H]1CCNC1	56
CC(C)(CC(=O)Nc1cncc(C(=O)O)c1N)NC(=O)CCC1CCCCC1	65

— ChEMBL document CHEMBL4627289, “Design, synthesis and evaluation of unnatural peptides as T1R2/T1R3 PAMs” (Bioorg Med Chem Lett, 2020)
